Data as given in patent publication US10723709B2, “Protease inhibitors” (MEDIVIR AB, priority 2008, dated 2020).

Legend:
[1] = reference markers of the permeability assay; cited from earlier work
[2] = In vivo mouse PK, oral administration (FIG. 1); design: species or system male C57Bl mice; settings: mice, orally administered 60 μmol/kg in 1% Methocel A4C vehicle; compared with Example 2 of WO2008 007107
Description: FIG. 1 depicts plasma concentration against time for male C57Bl mice orally administered a compound of the invention or a compound of the prior art.
Various embodiments of the invention will now be described by way of illustration only with reference to the following Examples and FIG. 1 which depicts plasma concentration against time for male C57Bl mice orally administered a compound of the invention or a compound of the prior art.

Description for Caco-2 cells: This experiment measures transport of inhibitors through the cells of the human gastroenteric canal. The assay uses the well known Caco-2 cells with a passage number between 40 and 60.
Apical to Basolateral Transport
The basolateral and the apical wells will contain 1.5 mL and 0.4 mL transport buffer (TB), respectively, and the standard concentration of the tested substances is 10 μM. Furthermore all test solutions and buffers will contain 1% DMSO. Prior to the experiment the transport plates are pre-coated with culture medium containing 10% serum for 30 minutes to avoid nonspecific binding to plastic material. After 21 to 28 days in culture on filter supports the cells are ready for permeability experiments. […]
0.5 mL transport buffer (HBSS, 25 mM MES, pH 6.5) is added to the inserts and the cell monolayers equilibrated in the transport buffer system for 30 minutes at 37° C. in a polymix shaker. After being equilibrated to the buffer system the Transepithelial electrical resistance value (TEER) is measured in each well by an EVOM chop stick instrument. […]
300 μL will be taken from the basolateral (receiver) wells at each scheduled time point and the post value of TEER is measured at the end the experiment. […]
Determination of the cumulative fraction absorbed, FAcum, versus time. FAcum is calculated from: […]
The determination of permeability coefficients (Papp, cm/s) are calculated from: […]

| Molecule | % absorption in man [1] [%] | other results |
| --- | --- | --- |
| CN(Cc1cnc2nc(N)nc(N)c2n1)c1ccc(C(=O)N[C@@H](CCC(=O)O)C(=O)O)cc1 [Methotrexate] | 20 |  |
| C#C[C@@H]1CN(C(=O)[C@H](CC(C)C)NC(=O)c2ccc(-c3nc(N4CCN(C)CC4)sc3F)cc2)[C@@H]2C(=O)CO[C@H]12 [Example 2, N-[1-6-(ethynyl-3-oxo-hexahydro-furo[3,2-b]pyrrole-4-carbonyl)-3-methyl-butyl]-4-[5-fluoro-2-(4-methyl-piperazin-1-yl)thiazol-4-yl]-benzamide] |  | in vivo exposure (whether measured as Cmax or AUC) [2]: very much greater |
| OC[C@@H](O)[C@@H](O)[C@H](O)[C@H](O)CO [Mannitol] | 16 |  |
| N—((S)-1-((3aS, 6R, 6aS)-6-methoxy-oxodihydro-2H-furo[3,2-b]pyrrol-4(5H, 6H, 6aH)-yl)-4-methyl-oxopentan-2-yl)-4-(2-(4-methylpiperazine-1-yl)thiazol-4-yl)benzamide |  | papp value (Caco-2 cells): 9e-07 cm/s |
| N[C@@H](Cc1ccccc1)C(=O)O [L-Phenylalanine] | 100 |  |
